Source: ChEMBL document CHEMBL4406816, “Role of sulphur-heterocycles in medicinal chemistry: An update” (Eur J Med Chem, 2019)
Converted amounts (≈) assume the structure as drawn.

Legend:
[1] = system: MCF7; assay: Potency index, ratio of doxorubicin IC50 to compound IC50 for human MCF7 cells; assay type: functional
[2] = system: MCF7; assay: Cytotoxicity against human MCF7 cells after 72 hrs by MTT assay; assay type: functional, cell-based; settings: MCF7, 72 h
[3] = molecular target: Large neutral amino acids transporter small subunit 1 (Homo sapiens, UniProt Q01650); assay: Inhibition of recombinant human LAT1
[4] = system: Feline immunodeficiency virus; assay: Antiviral activity against Feline immunodeficiency virus; assay type: functional, organism-based
[5] = Antioxidant activity assessed as DPPH radical scavenging activity after 30 mins under dark condition; assay type: functional
[6] = system: Streptococcus pneumoniae; assay: Antibacterial activity against Streptococcus pneumoniae; assay type: functional
[7] = system: Phytophthora infestans; assay: Antifungal activity Phytophthora infestans; assay type: functional, organism-based
[8] = system: Psilocybe cubensis; assay: Antifungal activity Psilocybe cubensis; assay type: functional, organism-based
[9] = system: Jurkat; assay: Anticancer activity against human Jurkat cells; assay type: functional, cell-based
[10] = system: A-431; assay: Anticancer activity against human A431 cells; assay type: functional, cell-based
[11] = system: Staphylococcus aureus; assay: Antibacterial activity against Staphylococcus aureus; assay type: functional, organism-based
[12] = system: Pseudomonas aeruginosa; assay: Antibacterial activity against Pseudomonas aeruginosa; assay type: functional, organism-based
[13] = system: Bacillus subtilis; assay: Antibacterial activity against Bacillus subtilis; assay type: functional, organism-based
[14] = system: Escherichia coli; assay: Antibacterial activity against Escherichia coli; assay type: functional, organism-based
[15] = system: Candida albicans; assay: […] activity against Candida albicans; assay type: functional, organism-based
[16] = system: MCF7; assay: Growth inhibition of human MCF7 cells after 48 hrs by SRB assay; assay type: functional; settings: MCF7, 48 h
[17] = system: Mycobacterium tuberculosis; assay: Antitubercular activity against Mycobacterium tuberculosis; assay type: functional
[18] = molecular target: Prostaglandin G/H synthase 2 (Homo sapiens, UniProt P35354); assay: Inhibition of COX2 (unknown origin) by EIA
[19] = system: Rattus norvegicus; assay: Anti-inflammatory activity against carrageenan-induced Albino Wistar rat paw edema model assessed as inhibition of rat paw edema at 50 mg/kg, po after 5 hrs relative to control; assay type: functional
[20] = system: HT-29; assay: Growth inhibition of human HT-29 cells by MTT assay; assay type: functional
[21] = system: NCI-H460; assay: Growth inhibition of human NCI-H460 cells by MTT assay; assay type: functional
[22] = system: HepG2; assay: Growth inhibition of human HepG2 cells by MTT assay; assay type: functional
[23] = molecular target: Quinolone resistance protein NorA (Staphylococcus aureus) (UniProt P0A0J7); assay: Inhibition of NorA in Staphylococcus aureus measured after 1 hr by ethidium bromide staining based agar-cartwheel assay method
[24] = system: Leishmania amazonensis; assay: Antileishmanial activity against Leishmania amazonensis promastigotes; assay type: functional, organism-based
[25] = molecular target: 72 kDa type IV collagenase (Homo sapiens, UniProt P08253); assay: Inhibition of MMP2 catalytic domain (unknown origin) using Ac-PLG-[2-mercapto-4-methylpentanoyl]-LG-OC2H5 as substrate preincubated for 45 to 120 mins followed by substrate addition measured for 30 mins in 1 min time interval
[26] = molecular target: Alpha glucosidase (Homo sapiens, UniProt O43451+P10253+P14410+Q2M2H8); assay: Inhibition of alpha-glucosidase (unknown origin) using p-nitrophenyl alpha-d-glucopyranoside as substrate preincubated for 15 mins followed by substrate addition measured after 30 mins by spectrophotometric analysis; assay type: protein assay
[27] = system: Human gammaherpesvirus 4; assay: Antiviral activity against Epstein-Barr virus; assay type: functional, organism-based
[28] = molecular target: Peroxisome proliferator-activated receptor gamma (Homo sapiens, UniProt P37231); assay: Inhibition of PPARgamma (unknown origin)
[29] = system: Staphylococcus aureus; assay: Antibacterial activity against Staphylococcus aureus ATCC 25923 by broth microdilution method; assay type: functional
[30] = system: Staphylococcus aureus; assay: Antibacterial activity against Staphylococcus aureus ATCC 6538 by broth microdilution method; assay type: functional
[31] = system: Staphylococcus epidermidis; assay: Antibacterial activity against Staphylococcus epidermidis ATCC 12228 by broth microdilution method; assay type: functional
[32] = system: Rattus norvegicus; assay: Anti-inflammatory activity against carrageenan-induced Albino Wistar rat paw edema model assessed as inhibition of rat paw edema at 50 mg/kg, po pretreated for 1 hr followed by carrageenan addition measured after 1 to 4 hrs relative to control; assay type: functional
[33] = system: Klebsiella pneumoniae; assay: Antibacterial activity against Klebsiella pneumoniae; assay type: functional, organism-based
[34] = system: Rattus norvegicus; assay: Anti-inflammatory activity against carrageenan-induced Albino Wistar rat paw edema model assessed as inhibition of rat paw edema at 10 mg/kg, po pretreated for 1 hr followed by carrageenan addition measured after 1 to 4 hrs relative to control; assay type: functional
[35] = system: RAW264.7; assay: Anti-inflammatory activity against mouse RAW264.7 cells assessed as inhibition of LPS-induced NO production at 50 ug/ml relative to control; assay type: functional; design: scale not given: the % may be the effect or the level left

Chain of 72 kDa type IV collagenase (P08253 whole entry, the tested form may be a part): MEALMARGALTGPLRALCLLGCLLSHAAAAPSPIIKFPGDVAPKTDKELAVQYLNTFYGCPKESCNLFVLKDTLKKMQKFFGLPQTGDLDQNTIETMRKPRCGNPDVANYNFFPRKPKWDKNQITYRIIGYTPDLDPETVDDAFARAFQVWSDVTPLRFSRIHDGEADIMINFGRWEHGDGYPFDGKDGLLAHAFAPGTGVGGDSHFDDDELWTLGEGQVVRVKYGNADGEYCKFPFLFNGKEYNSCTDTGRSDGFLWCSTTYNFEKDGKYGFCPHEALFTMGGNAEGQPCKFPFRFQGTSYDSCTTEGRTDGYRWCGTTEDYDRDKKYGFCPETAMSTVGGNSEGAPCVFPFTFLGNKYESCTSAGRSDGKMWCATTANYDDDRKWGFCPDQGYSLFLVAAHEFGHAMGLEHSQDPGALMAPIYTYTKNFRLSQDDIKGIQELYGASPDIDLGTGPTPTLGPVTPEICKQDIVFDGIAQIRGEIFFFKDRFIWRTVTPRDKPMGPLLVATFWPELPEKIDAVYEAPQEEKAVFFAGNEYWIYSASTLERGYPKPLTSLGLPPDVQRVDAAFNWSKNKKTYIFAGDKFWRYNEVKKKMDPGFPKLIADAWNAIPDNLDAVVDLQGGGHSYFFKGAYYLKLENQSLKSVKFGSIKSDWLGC
Chain of Peroxisome proliferator-activated receptor gamma (P37231 whole entry): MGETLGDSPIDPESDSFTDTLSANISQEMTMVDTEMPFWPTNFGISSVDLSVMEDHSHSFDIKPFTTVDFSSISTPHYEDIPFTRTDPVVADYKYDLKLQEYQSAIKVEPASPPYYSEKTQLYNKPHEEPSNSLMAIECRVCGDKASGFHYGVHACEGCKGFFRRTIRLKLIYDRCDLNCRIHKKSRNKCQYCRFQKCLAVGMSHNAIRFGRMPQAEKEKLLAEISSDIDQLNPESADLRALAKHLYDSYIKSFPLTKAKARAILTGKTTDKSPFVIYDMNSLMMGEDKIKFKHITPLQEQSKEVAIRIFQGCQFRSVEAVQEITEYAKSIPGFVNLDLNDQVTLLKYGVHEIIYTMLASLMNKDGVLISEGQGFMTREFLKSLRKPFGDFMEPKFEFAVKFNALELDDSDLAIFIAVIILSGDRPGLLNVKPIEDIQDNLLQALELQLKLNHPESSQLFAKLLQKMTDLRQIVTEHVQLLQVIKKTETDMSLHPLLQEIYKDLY
Chain of Large neutral amino acids transporter small subunit 1 (Q01650 whole entry): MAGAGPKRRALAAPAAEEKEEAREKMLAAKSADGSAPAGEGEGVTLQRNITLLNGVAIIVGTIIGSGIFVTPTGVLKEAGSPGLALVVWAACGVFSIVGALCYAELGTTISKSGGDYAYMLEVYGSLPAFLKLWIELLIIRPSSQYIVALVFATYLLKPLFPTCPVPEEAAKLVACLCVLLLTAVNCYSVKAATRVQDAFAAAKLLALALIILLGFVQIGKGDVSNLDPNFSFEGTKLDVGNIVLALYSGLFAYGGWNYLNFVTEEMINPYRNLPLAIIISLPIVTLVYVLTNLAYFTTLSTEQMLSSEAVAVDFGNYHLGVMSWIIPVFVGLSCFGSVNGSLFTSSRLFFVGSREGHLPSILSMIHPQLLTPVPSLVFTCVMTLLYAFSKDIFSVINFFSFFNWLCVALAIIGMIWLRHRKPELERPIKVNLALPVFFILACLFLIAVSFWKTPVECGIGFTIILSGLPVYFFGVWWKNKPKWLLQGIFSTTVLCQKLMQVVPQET
Chain of Prostaglandin G/H synthase 2 (P35354 whole entry): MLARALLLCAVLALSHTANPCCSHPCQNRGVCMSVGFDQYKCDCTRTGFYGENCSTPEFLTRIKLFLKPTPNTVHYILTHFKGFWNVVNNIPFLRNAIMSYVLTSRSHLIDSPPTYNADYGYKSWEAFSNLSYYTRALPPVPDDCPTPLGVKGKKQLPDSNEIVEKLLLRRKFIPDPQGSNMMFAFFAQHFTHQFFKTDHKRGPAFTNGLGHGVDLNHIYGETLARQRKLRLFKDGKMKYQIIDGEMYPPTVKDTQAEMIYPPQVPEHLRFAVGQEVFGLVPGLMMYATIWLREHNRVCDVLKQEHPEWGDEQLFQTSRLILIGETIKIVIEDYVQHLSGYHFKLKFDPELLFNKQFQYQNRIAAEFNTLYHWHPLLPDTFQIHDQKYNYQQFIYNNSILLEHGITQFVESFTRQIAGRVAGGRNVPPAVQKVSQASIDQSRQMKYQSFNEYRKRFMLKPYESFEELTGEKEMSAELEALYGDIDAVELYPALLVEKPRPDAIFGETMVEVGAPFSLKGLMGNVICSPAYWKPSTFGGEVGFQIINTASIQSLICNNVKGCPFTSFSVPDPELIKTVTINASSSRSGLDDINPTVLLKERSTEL

N#Cc1c(/N=C/c2cc3cc(Br)ccc3[nH]2)sc2c1CCCCC2
Ratio IC50 [1]: 3.51
IC50 [2]: 14.9 µM

FC(F)(F)Oc1ccc(/N=c2\ssnc2Cl)nc1
IC50 [3]: 0.98 µM

S=c1ssnc1-c1ccccc1
EC50 [4]: 0.023 µM

COc1ccc(C2SCC(=O)N2c2ccc3nc(Cc4ccc(O)cc4)c(=O)[nH]c3c2)cc1 (configuration not stated)
IC50 [5]: 19.6 µM

C=CCNc1nc(C)c(C2=NN(C(N)=S)[C@H](c3ccc(Cl)cc3)C2)s1
MIC [6]: 0.12 µg/mL (≈ 0.306 µM)

O=C(c1cccc(Br)c1)N1CCC(c2cc(-c3snc(Cl)c3Cl)ns2)CC1
EC50 [7]: 0.27 µg/mL (≈ 0.536 µM)
EC50 [8]: 0.046 µg/mL (≈ 0.0914 µM)

Cc1ccc(Nc2nc(N(C)C)c(C#N)s2)cc1C
IC50 [9]: 34.8 µM
IC50 [10]: 34.3 to 34.8 µM

NYSTATIN
IC50 [11]: 7.3 µM
IC50 [12]: 7.3 µM
IC50 [13]: 7.3 µM
IC50 [14]: 7.3 µM
IC50 [15]: 7.3 µM

N#Cc1ccccc1-c1nnc(-c2ccc(/C=C3\SC(=O)NC3=O)cc2)o1
GI50 [16]: 0.004 µM

Fc1ccc(-c2cn(Cc3csc(-c4ccccc4)n3)nn2)cc1
MIC [17]: 8.99 µg/mL (≈ 26.7 µM)

CC1(C)S[C@@H]2[C@H](NC(=O)[C@H](N)c3ccccc3)C(=O)N2[C@H]1C(=O)O [AMPICILLIN]
MIC [6]: 0.03 µg/mL (≈ 0.0859 µM)

COc1ccc(-c2nn(-c3ccc(S(C)(=O)=O)cc3)cc2/C=C2\SC(=O)NC2=O)cc1
IC50 [18]: 0.88 µM
inhibition in vivo at 50 mg/kg [19]: 80.2%

COc1cccc2c1C(=O)c1c(O)c3c(c(O)c1C2=O)C[C@@](O)(C(=O)CO)C[C@@H]3O[C@H]1C[C@H](N)[C@H](O)[C@H](C)O1 [DOXORUBICIN]
IC50 [9]: 45.9 µM
GI50 [20]: 0.05 µM
IC50 [10]: 42.4 µM
GI50 [21]: 0.09 µM
GI50 [22]: 0.04 µM

O=C(Nc1nc(=S)ss1)c1ccc(Cl)cc1
MIC [23]: 0.5 µg/mL (≈ 1.73 µM)

COc1ccc2nc3cc(Cl)ccc3c(Nc3sc4c(c3C#N)CCC4)c2c1
IC50 [24]: 9.6 µM

O=S(=O)(CC1CS1)c1ccc(-n2cc(-c3ccc(-c4ccncc4)cc3)nn2)cc1 (configuration not stated)
IC50 [25]: 0.62 µM

COc1ccc(-c2csc(NC(=O)CSc3nnc(-c4ccc(Br)cc4)c(-c4ccc(Br)cc4)n3)n2)cc1
IC50 [26]: 2.85 µM

O=C(N[C@H](CO)[C@H](O)c1ccc([N+](=O)[O-])cc1)C(Cl)Cl [CHLORAMPHENICOL]
IC50 ([11]; Staphylococcus aureus): 22.5 µM
IC50 ([12]; Pseudomonas aeruginosa): 22.5 µM
IC50 ([13]; Bacillus subtilis): 22.5 µM
IC50 ([14]; Escherichia coli): 22.5 µM
IC50 ([15]; Candida albicans): 22.5 µM

COc1ccc([C@H]2c3sc(=O)[nH]c3SC[C@H]2C=O)cc1
EC50 [27]: 0.07 µM

CCCCNC(=O)CN1C(=O)S/C(=C/c2ccc(Cl)cc2)C1=O
EC50 [28]: 5.9 µM

O=C(CC1SC(=O)NC1=O)Oc1ccc(/C=C2/SC(=O)NC2=O)cc1Br (configuration not stated)
MIC [29]: 3.91 µg/mL (≈ 8.55 µM)
MIC [30]: 3.91 µg/mL (≈ 8.55 µM)
MIC [31]: 7.81 µg/mL (≈ 17.1 µM)

N#Cc1c(-c2ccc(N3CCOCC3)cc2)csc1NC(=O)CN1CCOCC1
inhibition in vivo at 50 mg/kg [32]: 58.5%

O=C1O[C@H]([C@@H](O)CO)C(O)=C1O [ASCORBIC ACID]
IC50 [5]: 16.9 µM

GENTAMICIN
MIC [33]: 0.03 µg/mL

O=C(O)c1sc(-c2ccc(Cl)cc2)cc1C1C=C(c2ccccc2)c2c1ncn1c(-c3ccc(Cl)cc3)nnc21 (configuration not stated)
GI50 [20]: 0.03 µM
GI50 [21]: 0.05 µM
GI50 [22]: 0.02 µM

COc1ccc2c(c1)c(CC(=O)O)c(C)n2C(=O)c1ccc(Cl)cc1 [INDOMETHACIN]
inhibition in vivo at 10 mg/kg [34]: 47.7%

N#Cc1ccc(/N=N/c2ccc(/C=C3\SC(=O)NC3=O)c(/N=N/c3ccc(C#N)cc3)c2O)cc1
Activity [35]: 60%
